Reference: US20030186892A1, “Enhancement of endogenous gonadotropin production” (priority 2002, published 2003)

How the values were obtained:
[1] = test system: testosterone; conditions: 5 mg b.i.d. (Group B) compared with 10 mg q.d. (Group C), oral
[2] = in vivo

CCNC(=O)[C@@H]1CCCN1C(=O)[C@H](CCCNC(=N)N)NC(=O)[C@H](CC(C)C)NC(=O)[C@@H](CC(C)C)NC(=O)[C@H](Cc1ccc(O)cc1)NC(=O)[C@H](CO)NC(=O)[C@H](Cc1c[nH]c2ccccc12)NC(=O)[C@H](Cc1c[nH]cn1)NC(=O)[C@@H]1CCC(=O)N1 [leuprolide acetate]
Elevation of plasma testosterone, comparison of regimens [1]: more significant elevation of plasma testosterone | Administered sublingual dose absorbed compared to subcutaneous reference [2]: Approximately 1%
